Patent US20210330611A1, “THERAPY FOR NEUROLOGICAL DISEASES/DISORDERS” (priority 2020, published 2021)
Read-outs that look alike come from different tables or passages of the source.

How the values were obtained:
[1] = test system: fibrin-induced microglia activation; test: Image-based assay of fibrin-induced microglia activation (HTS and dose response); assay type: cell-based, rat; details: for inhibition at 10 µM: Rattus norvegicus, Microglia, read-out: Fibrin % inhibition
[2] = test system: LPS-induced microglia activation; test: Image-based assay of LPS-induced microglia activation (HTS and dose response); assay type: cell-based, rat; details: for inhibition at 10 µM: Rattus norvegicus, Microglia, read-out: LPS % inhibition
[3] = test system: fibrin- and LPS-induced microglia activation; test: cells; assay type: cell-based, rat
primary rat microglia [4] = test: Cell toxicity (dead cells, size <150 μm2) in LPS assay
primary rat microglia [5] = test: Cell toxicity (dead cells, size <150 μm2) in coated fibrin (cFib) assay;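 note: share of dead cells sized under 150 µm2 at 10 µM in fibrin-stimulated microglia HTS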
[6] = primary HTS, 10 μM, fibrin-stimulated primary microglia
[7] = primary HTS, 10 μM, LPS-stimulated primary microglia
[8] = primary HTS, 10 μM, LPS assay, dead cells size <150 μm2
[9] = primary HTS, 10 μM, fibrin assay, dead cells size <150 μm2
[10] = primary microglia HTS, fibrin stimulation, increased cell size (>800 μm^2) as marker of activation
[11] = primary microglia HTS, LPS stimulation, increased cell size (>800 μm^2) as marker of activation
[12] = quadrant by fibrin and LPS inhibition in HTS of 1907 compounds
[13] = primary microglia HTS, LPS stimulation, decreased size (<150 μm^2) as marker of toxicity
[14] = primary microglia HTS, fibrin stimulation, decreased size (<150 μm^2) as marker of toxicity
[15] = 48 h, primary microglia HTS, LPS stimulation, increased cell size (>800 μm^2) as marker of activation

Row | SMILES | inhibition at 10 µM [1, 6] | inhibition at 10 µM [2, 7] | Quadrant (FIG. 5b) ([3]; primary HTS, 10 μM) | LPS % cell toxicity (primary rat microglia [4]; [8]) | Fibrin % cell toxicity (primary rat microglia [5]; [9]) | Fibrin % inhibition [1, 10] | LPS % inhibition [2, 11] | Quadrant (FIG. 5b) [3, 12] | LPS % cell toxicity (primary rat microglia [4]; [13]) | Fibrin % cell toxicity (primary rat microglia [5]; [14]) | inhibition at 10 µM [1, 10] | inhibition at 10 µM [2, 15]
1 | Cc1onc(-c2ccccc2Cl)c1C(=O)N[C@@H]1C(=O)N2[C@@H]1SC(C)(C)[C@@H]2C(=O)O [Cloxacillin] | -13% | 17% | Q4 | 1% | 1% |  |  |  |  |  |  | 
2 | Oc1ccc(Cl)c2cccnc12 [Cloxyquin] | -4% | 18% | Q4 | 0% | 0% |  |  |  |  |  |  | 
3 | C=C[C@@]1(C)CC(=O)[C@]2(O)[C@@]3(C)[C@@H](O)CCC(C)(C)[C@@H]3[C@H](O)[C@H](OC(C)=O)[C@@]2(C)O1 [Colforsin] | 46% | 26% | Q4 | 0% | 1% |  |  |  |  |  |  | 
4 | CC[C@H](C)C(=O)O[C@H]1CCC=C2C=C[C@H](C)[C@H](CC[C@@H]3C[C@@H](O)CC(=O)O3)[C@H]21 [Compactin, Mevastatin] |  |  |  |  |  | 105% | 89% | Q2 | 2% | 3% |  | 
5 | CC(=O)OCC(=O)[C@@]1(O)CC[C@H]2[C@@H]3CCC4=CC(=O)CC[C@]4(C)[C@H]3C(=O)C[C@@]21C [Cortisone Acetate] | 0% | 7% | Q4 | 0% | 1% |  |  |  |  |  |  | 
6 | CN1C(=O)CC[C@H]1c1cccnc1 [Cotinine] | -39% | 6% | Q4 | 1% | 1% |  |  |  |  |  |  | 
7 | C[C@H]1O[C@@H](O[C@H]2CC[C@@]3(C)[C@H](CC[C@@H]4[C@@H]3C[C@@H](O)[C@]3(C)[C@@H](C5=CC(=O)OC5)CC[C@]43O)C2)C[C@H](O)[C@@H]1O[C@H]1C[C@H](O)[C@H](O[C@H]2C[C@H](O)[C@H](O[C@@H]3O[C@H](CO)[C@@H](O)[C@H](O)[C@H]3O)[C@@H](C)O2)[C@@H](C)O1 [Deslanoside] |  |  |  |  |  |  |  | Q1 | 1% | 1% | -3% | 67%
8 | CC1(C)O[C@@H]2C[C@H]3[C@@H]4CCC5=CC(=O)C=C[C@]5(C)[C@H]4[C@@H](O)C[C@]3(C)[C@]2(C(=O)CO)O1 [Desonide] |  |  |  |  |  |  |  | Q2 | 5% | 17% | 108% | 112%
9 | C[C@@H]1C[C@H]2[C@@H]3CCC4=CC(=O)C=C[C@]4(C)[C@@]3(F)[C@@H](O)C[C@]2(C)[C@H]1C(=O)CO [Desoximetasone] |  |  |  |  |  |  |  | Q2 | 3% | 5% | 101% | 91%
10 | C[C@@H]1C[C@H]2[C@@H]3CCC4=CC(=O)C=C[C@]4(C)[C@@]3(F)[C@@H](O)C[C@]2(C)[C@H]1C(=O)CO [Desoxymetasone] |  |  |  |  |  | 108% | 105% | Q2 | 3% | 3% |  | 
11 | CCCCC[C@H](O)/C=C/[C@H]1[C@H](O)CC(=O)[C@@H]1C/C=C\CCCC(=O)O [Dinoprostone] |  |  |  |  |  |  |  | Q2 | 2% | 9% | 102% | 85%
12 | Cc1c(N(C)CS(=O)(=O)[O-])c(=O)n(-c2ccccc2)n1C.[Na+] [Dipyrone] |  |  |  |  |  | 106% | 101% | Q2 | 36% | 26% |  | 
